Legend:
[1] = target: T1, human SCD5 (Homo sapiens, UniProt Q86SK9); assay: Growth of humanized yeast expressing human SCD5 as sole desaturase; type: cell-based, Saccharomyces cerevisiae expressing Saccharomyces cerevisiae expressing Saccharomyces cerevisiae expressing Saccharomyces cerevisiae expressing Saccharomyces cerevisiae expressing human SCD5 SCD5 SCD5 SCD5 SCD5; conditions: yeast growth
T1 construct: host or cells: S. cerevisiae ole1Δ strain (W303 pdr1Δ pdr3Δ background), pRS316 plasmid, TDH3 promoter
T1 sequence (Q86SK9 1-330): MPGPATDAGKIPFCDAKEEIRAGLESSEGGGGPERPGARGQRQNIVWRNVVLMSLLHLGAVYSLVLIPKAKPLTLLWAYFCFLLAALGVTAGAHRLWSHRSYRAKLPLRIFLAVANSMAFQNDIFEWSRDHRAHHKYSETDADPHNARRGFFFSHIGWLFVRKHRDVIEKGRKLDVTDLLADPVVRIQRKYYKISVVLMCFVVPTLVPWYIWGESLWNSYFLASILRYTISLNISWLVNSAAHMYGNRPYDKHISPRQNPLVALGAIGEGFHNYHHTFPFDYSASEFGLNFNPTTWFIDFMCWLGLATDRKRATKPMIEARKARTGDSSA
Description: To generate yeast strains expressing SCD1 or SCD5 as the sole desaturase, the human SCD1 and SCD5 genes were cloned from cDNAs (Harvard PlasmID database Clone ID HsCD00340237 for SCD1 and HsCD00342695 for SCD5) into yeast plasmid pRS316 (ATCC 77145) between the yeast TDH3 promoter and the CYC1 terminator. The coding sequence of yeast OLE1 was also cloned into this plasmid). These clones were then transformed into the ole1Δ strain and plated on CSM-Ura media (CSM lacking uracil) with 2% glucose (w/v) and independent colonies were isolated and amplified.
(§1) All compound profiling experiments were performed using the same basic protocol. Different genetic backgrounds (e.g., gene deletions) or conditions (e.g., addition of oleic and palmitoleic acid) were replaced as indicated below.
Compound stocks (10 mM in 100% DMSO) were arrayed into 384 round well, v-bottom polypropylene plates and diluted according to indicated dilution factors. Compound administration was performed in two separate steps. First, 15 μL of CSM-Galactose (induces expression of toxic protein) was dispensed into clear 384 well assay plates using a MULTIDROP™ Combi reagent dispenser. The diluted compound stock plates were then applied to the assay plates using an automated workstation (Perkin Elmer JANUS™) outfitted with a 384 pin tool containing slotted pins that deliver 100 nL of compound. The cultures described above were then diluted to a 2× concentration (0.03 and 0.08 for alpha-synuclein and ApoE, final OD600 of 0.015 and 0.04) in CSM-Galactose. For wild-type and Ole1/SCD1/SCD5 plasmid-containing strains, the 2× cell density was 0.02. In all experiments, 15 μL culture was then dispensed into the pinned assay plate to achieve 30 μL of the 1×OD600 culture and a top drug concentration of […]. For 96-well assays (FIGS. 2A and 2B), compound dilutions in DMSO were generated in 96 well plates and 1 μL was manually pipetted into 96 well clear bottom assay plates.
(§2) For experiments using a plasmid-borne copy of Ole1, SCD1, or SCD5 (FIGS. 4B, 7, and 8), media lacking uracil (SX-Ura, where X is glucose, raffinose, or galactose), was used for all steps of the compound profiling protocol to ensure its maintenance throughout the assay.
After yeast delivery, assay plates were incubated under humidified conditions at 30° C. for 24 to 40 h. ApoE4 rescue experiments were stopped at 24 h, aSyn experiments at 40 h, Ole1 at 24 h, and SCD1/SCD5 at 40 h. The growth of yeast was monitored by reading the OD600 of each well using a microplate reader (Perkin Elmer EnVision™). For model rescue experiments, raw data were processed by background subtracting and calculating a fold-change relative to DMSO control [(EXP−0.035)/(DMSO−0.035)—where 0.035 is the OD600 contributed by an empty well containing 30 μL of media alone]. For growth inhibition of wild-type cells, raw data were processed by background subtracting and converting values to a percent of the nontreated condition for that strain [(EXP−0.035)/(DMSO−0.035)×100%].

[2] = target: T2, human SCD1 (Homo sapiens, UniProt O00767); assay: Growth of humanized yeast expressing human SCD1 as sole desaturase; type: cell-based, humanized yeastized yeastized yeastized yeast; conditions: yeast growth
T2 construct: host or cells: S. cerevisiae ole1Δ strain (W303 pdr1Δ pdr3Δ background), pRS316 plasmid, TDH3 promoter
T2 sequence (O00767 1-359): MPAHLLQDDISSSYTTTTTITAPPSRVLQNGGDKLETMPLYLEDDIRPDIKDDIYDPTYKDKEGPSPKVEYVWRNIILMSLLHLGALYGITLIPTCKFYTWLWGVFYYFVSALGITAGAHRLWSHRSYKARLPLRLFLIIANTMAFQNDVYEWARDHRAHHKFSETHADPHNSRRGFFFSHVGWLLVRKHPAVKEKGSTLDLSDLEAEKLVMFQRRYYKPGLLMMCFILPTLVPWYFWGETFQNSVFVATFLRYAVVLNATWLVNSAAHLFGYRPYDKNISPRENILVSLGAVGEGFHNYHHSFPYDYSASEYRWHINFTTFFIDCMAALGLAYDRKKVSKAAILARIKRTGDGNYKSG
Description: The coding sequence of yeast OLE1 was also cloned into this plasmid). These clones were then transformed into the ole1Δ strain and plated on CSM-Ura media (CSM lacking uracil) with 2% glucose (w/v) and independent colonies were isolated and amplified.
as §1
Compound administration was performed in two separate steps. First, 15 μL of CSM-Galactose (induces expression of toxic protein) was dispensed into clear 384 well assay plates using a MULTIDROP™ Combi reagent dispenser. […] The cultures described above were then diluted to a 2× concentration (0.03 and 0.08 for alpha-synuclein and ApoE, final OD600 of 0.015 and 0.04) in CSM-Galactose. For wild-type and Ole1/SCD1/SCD5 plasmid-containing strains, the 2× cell density was 0.02.
as §2
After yeast delivery, assay plates were incubated under humidified conditions at 30° C. for 24 to 40 h. ApoE4 rescue experiments were stopped at 24 h, aSyn experiments at 40 h, Ole1 at 24 h, and SCD1/SCD5 at 40 h. The growth of yeast was monitored by reading the OD600 of each well using a microplate reader (Perkin Elmer EnVision™).

Cc1nnc(-c2ccc(N3CCC(Oc4cc(F)ccc4Cl)CC3)nn2)o1 [CAY10566]
half-maximal inhibitory concentration (IC50), SCD5 humanized strain [1]: low nanomolar
half-maximal inhibitory concentration (IC50), SCD1 humanized strain [2]: low nanomolar

Reference: US20200222400A1, “METHODS FOR THE TREATMENT OF NEUROLOGICAL DISORDERS” (Yumanity Therapeutics, Inc., priority 2019, published 2020)
